Values joined by “and” are separate entries in the source; they are usually repeats but may differ in a detail not shown here. Equal values may be shown once. Read-outs that look alike come from different tables or passages of the source.
Experiments:
[1] = Qualitative oral bioavailability of CLA acetal in the rat (plasma); settings: for Estimated Plasma Concentration of CLA aldehyde / Estimated Plasma Concentration of CLA acetal: rat plasma
Protocol: This experiment was designed to measure in a qualitative manner the oral bioavailability of CLA acetal in rats. Four Lewis strain normal male rats, 9 weeks of age were administered a single dose of 50 mg/kg of the acetate salt of the CLA acetal compound, using a single oral gavage. […] The blood samples were immediately centrifuged at 3000 rpm for 3-5 minutes to separate plasma from cells and the plasma and cells were frozen separately by immersion in liquid nitrogen and storage in a −20° C. freezer.
The aldehyde and acetal forms of CLA were then extracted from the plasma using a Bligh Dyer-type liquid phase extraction followed by solid-phase extraction using a reverse phase column. The relative amounts of CLA acetal and aldehyde were then measured using HPLC separation with mass spectrometric detection, using an electrospray ionization source and a Micromass Qtof detector.

[2] = rats
Protocol: In a pilot toxicology study, two groups of 2 male and 2 female Sprague-dawley rats each were administered intravenous bolus doses of 250 and 500 mg/kg CLA. […] In a larger, follow-up study (Table 11), Sprague-Dawley rats were administered several lower doses of CLA intravenously at 7-8 weeks of age. The rats were divided into 4 groups consisting of equal numbers of male and female rats. […] The vehicle consisted of Dulbecco's phosphate-buffered saline.

mdx mice = settings: for Myofiber diameter (Gastrocnemis) / Myofiber diameter, Diaphragm: injected parenterally daily from one to two months
Protocol: CLA was injected parenterally daily at the indicated concentrations into mdx mice from one to two months. Mdx control mice were injected with saline alone. At two months, the animals were sacrificed and indicated muscles removed, fixed, and stained for myofiber diameter analysis.

calpain [3] = settings: rats, IP, muscle isolated after 2 hours
Protocol: An initial series of toxicology experiments was performed in rats to assess the effect of CLA at various doses, on animal viability. […] A series of experiments to examine the ability of CLA vs. leupeptin to decrease activated calpain levels and inhibit muscle wasting was conducted. In the experiment shown in Table 4, rats were utilized to assess the effect of IP injection of either leupeptin or CLA into the hind limb muscle on their ability to inhibit calpain activity. To this end, four rats were injected IP with either leupeptin or CLA. After 2 hours, the muscle was isolated, homogenized, and assayed for remaining calpain activity by the standard assay.

[4] = Uptake and conversion of CLA acetal in rat gastrocnemius muscle; assay type: in vivo
Protocol: This experiment was designed to measure the uptake of CLA acetal in rat gastrocnemius muscle and to detect conversion of CLA acetal to CLA as it occurs in rat muscle. […] At different times following administration of drug, each rat was sacrificed, the left and right gastrocnemius muscles were dissected from the rat, and the muscles were frozen by immersion in liquid nitrogen and storage in a −80° C. freezer.
The muscle tissues were thawed and homogenized using a blender.

[5] = system: rat hind limb muscle (sciatic nerve denervation); settings: for % loss (muscle atrophy due to denervation): rat
Protocol: Denervation was carried out on one of the hind limb sciatic nerves of the rat. Denervation was allowed to proceed for 7 days. Either leupeptin or CLA was injected 2×/day in forelimb muscle for seven days. The non-denervated hind limb was used as the control. Leupeptin and/or CLA were injected into alternating forelimb muscles for a period of seven days after which, animals were sacrificed, muscles excised and weighed.

[6] = rats, various doses
calpain [7] = settings: RD muscle cells
Description: This study was designed to measure the effect of CLA, a calpain inhibitor, upon calpain activity inside living muscle cells. […] Full length alpha-II spectrin has a molecular weight of approximately 250 kilodaltons; upon cleavage by calpain, calpain-specific spectrin breakdown products with molecular weights of approximately 150 and 145 kilodaltons, respectively, are generated sequentially. Human RD muscle cells are a rhabdomyosarcoma muscle cell line that expresses OCTN2, a transporter for carnitine. By monitoring the reduction in spectrin breakdown products caused by calpain inhibition in RD muscle cells, it is possible to measure the potency of inhibitors according to the extent to which they reduce the appearance of calpain-specific spectrin breakdown products.
In the experiment, Rd muscle cells were incubated with either CLA or leupeptin for 1 hour. 1 nM maitotoxin was added to the cells to stimulate calcium influx and calpain activation. The cells were incubated for another 60 minutes. The cells were then lysed in phosphate buffer containing 1% Triton X-100 and a protease inhibitor cocktail. The lysed samples were centrifuged and the supernatants were collected. The protein concentration in each supernatant was measured using a standard assay. 20 micrograms of each sample was electrophoresed on a 4% Tris-glycine polyacrylamide gel. […]

[8] = Conversion of CLA acetal to aldehyde using acid (HPLC); assay type: physicochemical; settings: 5 mg/mL in water
Protocol: Solutions of CLA diethyl acetal in water were prepared at a concentration of 5 mg/mL and the pH was adjusted to values shown in Table 8 using concentrated hydrochloric acid. Each solution was incubated at different times at room temperature. Samples were removed at each time point and quenched using basic phosphate buffer, yielding a final pH of 9. The quenched samples were analyzed using an Agilent 1100 HPLC system. The aldehyde was chromatographically separated from the acetal on a C18 reverse-phase HPLC column, using a linear gradient where the starting mobile phase was 0.1% trifluoroacetic acid in a 99:1 water:acetonitrile mixture and the final mobile phase was 0.1% trifluoroacetic acid in a 50:50 water:acetonitrile mixture. The absorbance at 220 nm was monitored, and the area of the peak corresponding to elution of the CLA diethyl acetal was computed.

[9] = Single-dose oral rat toxicology study of CLA acetal; assay type: in vivo, Sprague Dawley rats; settings: rats, oral gavage, 250, 1000, 2000 mg/kg, up to 24 hours after dosing
Protocol: Sprague Dawley rats were administered single doses of CLA acetal by oral gavage at 7-8 weeks of age. Each group received a single oral dose level of CLA acetal, ranging in amount from 0 to 2000 mg/kg. The vehicle consisted of Dulbecco's phosphate-buffered saline.

porcine kidney calpain 2 = porcine kidney calpain 2 (Sus scrofa, UniProt I3LQD3); assay: Enzymatic calpain assay with fluorogenic substrate; assay type: biochemical; settings: porcine kidney calpain 2, 37° C., 10 mM calcium chloride
porcine kidney calpain 2, sequence (P04574 whole entry): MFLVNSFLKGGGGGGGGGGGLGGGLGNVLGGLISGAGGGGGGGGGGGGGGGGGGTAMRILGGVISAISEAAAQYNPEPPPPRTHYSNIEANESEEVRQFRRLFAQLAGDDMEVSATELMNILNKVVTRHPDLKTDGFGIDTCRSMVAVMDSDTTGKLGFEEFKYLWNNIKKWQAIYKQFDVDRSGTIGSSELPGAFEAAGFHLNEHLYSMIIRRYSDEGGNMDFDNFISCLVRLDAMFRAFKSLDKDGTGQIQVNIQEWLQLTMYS
porcine kidney calpain 2, sequence (I3LQD3 entry or part of it): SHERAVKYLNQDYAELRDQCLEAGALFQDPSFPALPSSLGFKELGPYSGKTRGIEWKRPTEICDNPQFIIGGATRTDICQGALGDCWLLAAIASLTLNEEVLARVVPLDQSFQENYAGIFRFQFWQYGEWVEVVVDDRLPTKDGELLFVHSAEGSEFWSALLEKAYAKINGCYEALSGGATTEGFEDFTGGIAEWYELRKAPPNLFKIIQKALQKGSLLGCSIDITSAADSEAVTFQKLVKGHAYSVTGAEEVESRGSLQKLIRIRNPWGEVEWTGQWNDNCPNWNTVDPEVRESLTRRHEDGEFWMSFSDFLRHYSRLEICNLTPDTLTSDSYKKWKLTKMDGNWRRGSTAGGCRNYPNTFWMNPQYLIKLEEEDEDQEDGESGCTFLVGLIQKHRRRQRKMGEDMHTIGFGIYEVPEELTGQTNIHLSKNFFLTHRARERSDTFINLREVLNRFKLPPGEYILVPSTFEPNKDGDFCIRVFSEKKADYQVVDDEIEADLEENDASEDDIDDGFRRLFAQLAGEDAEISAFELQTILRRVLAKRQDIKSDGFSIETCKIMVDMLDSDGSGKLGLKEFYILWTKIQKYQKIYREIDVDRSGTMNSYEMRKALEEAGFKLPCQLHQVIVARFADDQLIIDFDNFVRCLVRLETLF
Description: The α-carbon stereocenter adjacent to the aldehyde group of CLA can be prepared in a “natural” L or “unnatural” D configuration. It is known however that enolization of such aldehydes can easily occur during synthesis, storage, or administration of such peptide aldehydes to patients, with the result that the α-carbon stereocenter undergoes racemization. To investigate the relative biological activity of the optical isomers of CLA, the pure form of both the L-argininal diethyl […] diethyl acetal forms of CLA were prepared via the method described in Example 11 below using both L and D enantiomers of the […] starting materials. […] Slopes were calculated for the initial phase of each reaction and the ratios of velocities for each compound concentration (Vi) to the uninihibited reaction velocity (V0) were calculated, plotted, and fitted to a rectangular hyperbola using the program Kaleidagraph (Synergy software). […] An increase in enzyme activity appears to occur at intermediate concentrations of the D-isomer (Panel B.). This increase may be due to weak binding at an allosteric site that is not inhibitory the enzyme.

[10] = 45 minutes after single oral gavage of 50 mg/kg CLA acetal acetate salt, single rat
[11] = rat left gastrocnemius, 2 hours after oral 50 mg/kg CLA acetal acetate salt
[12] = rat right gastrocnemius, 6 hours after oral 50 mg/kg CLA acetal acetate salt
[13] = rat right gastrocnemius, 8 hours after oral 50 mg/kg CLA acetal acetate salt, one line per rat, 50 mg/kg

For `CC(C)C[C@H](NC(=O)CCC(=O)N[C@H](CC(=O)O)C[N+](C)(C)C)C(=O)N[C@H](C=O)CCCNC(=N)N.Cl.[Cl-]` [CLA, aminocarnityl-succinyl-leucyl-argininal], the “Estimated Plasma Concentration of CLA aldehyde” value [1, 10] was less than 20 ng/mL, the “Estimated Plasma Concentration of CLA aldehyde” value ([1]; 60 minutes after single oral gavage of 50 mg/kg CLA acetal acetate salt, one line per rat, listed as CLA aldehyde, 50 mg/kg) was <20 ng/mL (2×) and 72 ng/mL and the lethality ([2]; intravenous bolus, 500 mg/kg) was “lethal”. For the same compound, the maximum tolerated dose ([2]; single intravenous dose) was 200 mg/kg, the “no adverse effect limit (NOAEL)” value ([2]; single intravenous dose) was 100 mg/kg and the toxicity ([2]; single intravenous dose, 50 and 100 mg/kg) was “No toxicity”. For the same compound, the “Myofiber diameter (Gastrocnemis)” value (mdx mice; 5 mg) was 28.7 ± 7 mm, the “Myofiber diameter, Diaphragm” value (mdx mice; 5 mg) was 25.1 ± 7.3 mm and the “Myofiber diameter (Gastrocnemis)” value (mdx mice; 10 mg) was 30.6 ± 11 mm. For the same compound, the “Myofiber diameter, Diaphragm” value (mdx mice; 10 mg) was 25.4 ± 7.3 mm, the “effectiveness relative to leupeptin alone” value (mdx mice; retention of muscle size) was “at least five to seven times more effective” and the “% inhibition of muscle calpain activity” value (calpain [3]; 14 μmoles) was 48%. The “% inhibition/μmole” value (calpain [3]) was 3.5%, the “Fold (effectiveness per μmole relative to leupeptin)” value (calpain [3]) was 13.5 and the “Muscle concentration of active drug” value [4, 11] was 124.6 ng per gram. For the same compound, the “Percent of drug present as the active form” value (shortened to “Percent of drug present”) [4, 11] was 76.9%, the “Muscle concentration of active drug” value [4, 12] was 683.6 ng per gram and the “Percent of drug present” value [4, 12] was 98.6%. For the same compound, the “Muscle concentration of active drug” value [4, 13] was 758.4 ng per gram and 330.8 ng per gram, the “Percent of drug present” value [4, 13] was 98.7% and 97.3% and the “% loss (muscle atrophy due to denervation)” value (shortened to “% loss”) ([5]; 1.0 mg/kg injected 2x/day for seven days) was 5.2 ± 1%. The “% loss” value ([5]; 3.0 mg/kg injected 2x/day for seven days) was less than 1.0%, the “% loss” value ([5]; 6.0 mg/kg injected 2x/day for seven days) was less than 1.0% and the “health / toxic effect in denervation study” value ([5]; rats, seven days of injections) was “remained healthy without any apparent negative toxic effect”. The “toxic effect on animal viability” value [6] was “No toxic effect” and the “fold lower IC50 than leupeptin” value (calpain [7]) was “approximately 200 fold”.

For `CC(=O)O.CCOC(OCC)[C@H](CCCNC(=N)N)NC(=O)[C@H](CC(C)C)NC(=O)CCC(=O)N[C@H](CC(=O)[O-])C[N+](C)(C)C` [CLA acetal, aminocarnityl-succinyl-leucyl-argininal diethyl acetal], the “Estimated Plasma Concentration of CLA acetal” value [1, 10] was 5,840 ng/mL, the “Estimated Plasma Concentration of CLA acetal” value ([1]; 60 minutes after single oral gavage of 50 mg/kg CLA acetal acetate salt, one line per rat, 50 mg/kg) was 970 ng/mL and 8240 ng/mL and 51200 ng/mL and the oral absorption ([1]; rats, 50 mg/kg oral gavage) was “absorbed intact”. For the same compound, the Percent acetal remaining ([8]; pH = 0, room temperature, activation time 0 min) was 100.0%, the Percent acetal remaining ([8]; pH = 0, room temperature, activation time 5 min) was 80.0% and the Percent acetal remaining ([8]; pH = 0, room temperature, activation time 15 min) was 28.5%. It also gave a Percent acetal remaining ([8]; pH = 0, room temperature, activation time 30 min) of 11.2%, a Percent acetal remaining ([8]; pH = 0, room temperature, activation time 45 min) of 11.3% and a Percent acetal remaining ([8]; pH = 0, room temperature, activation time 60 min) of 11.3%. For the same compound, the Percent acetal remaining ([8]; pH = 0, room temperature, activation time 90 min) was 9.0%, the Percent acetal remaining ([8]; pH = 0, room temperature, activation time 120 min) was 10.9% and the Percent acetal remaining ([8]; pH = 0, room temperature, activation time 240 min) was 9.3%. The Percent acetal remaining ([8]; pH = 0, room temperature, activation time 1440 min) was 9.1%, the Percent acetal remaining ([8]; pH = 1.0, room temperature, activation time 0 min) was 100.0% and the Percent acetal remaining ([8]; pH = 1.0, room temperature, activation time 5 min) was 100.6%. For the same compound, the Percent acetal remaining ([8]; pH = 1.0, room temperature, activation time 15 min) was 97.3%, the Percent acetal remaining ([8]; pH = 1.0, room temperature, activation time 30 min) was 92.2% and the Percent acetal remaining ([8]; pH = 1.0, room temperature, activation time 45 min) was 86.9%. It also gave a Percent acetal remaining ([8]; pH = 1.0, room temperature, activation time 60 min) of 81.7%, a Percent acetal remaining ([8]; pH = 1.0, room temperature, activation time 90 min) of 72.7% and a Percent acetal remaining ([8]; pH = 1.0, room temperature, activation time 120 min) of 64.8%. The Percent acetal remaining ([8]; pH = 1.0, room temperature, activation time 240 min) was 42.2%, the Percent acetal remaining ([8]; pH = 1.0, room temperature, activation time 1440 min) was 6.4% and the “toxicity after single oral dose” value [9] was “No evidence of toxicity”. The “Muscle concentration of prodrug” value [4, 11] was 37.4 ng per gram, the “Muscle concentration of prodrug” value [4, 12] was 9.7 ng per gram and the “Muscle concentration of prodrug” value [4, 13] was 10.3 ng per gram and 9.2 ng per gram.

With `CC(C)CC(NC(=O)CCC(=O)NC(CC(=O)[O-])C[N+](C)(C)C)C(=O)NC(C=O)CCCNC(=N)N` [L-isomer of CLA] the IC50 (porcine kidney calpain 2; FIG. 7 Panel A) was 500 to 1000 nM.

Compound `CC(C)CC(NC(=O)CCC(=O)NC(CC(=O)[O-])C[N+](C)(C)C)C(=O)NC(C=O)CCCNC(=N)N` [D-isomer] has an IC50 (porcine kidney calpain 2; FIG. 7 Panel B) greater than 100000 nM.

From patent US20080039531A1, “Compositions, and kits comprising targeted aldehyde or acetal protease inhibitor compounds for treating muscle disorders” (priority 2005, published 2008)
